The source of these data is patent publication US20250163043A1 (TRANSTHERA SCIENCES (NANJING), INC., priority 2021, published 2025).

In one test the target is CDK3/CycE1 (Homo sapiens, UniProt Q00526). In words: ADP-Glo kinase assay on CDK enzymatic activity, CDK3/CycE1. Type of test: biochemical. The settings on record: 10 concentrations from 10 μM, 4-fold, 60 min room temperature. Summed up:
(§1)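 Kinase and compound are mixed and held 10 min at room temperature before substrate peptide and ATP start a 60 min reaction. Remaining ATP is depleted with ADP-Glo reagent (40 min), detection reagent is added (40 min), and luminescence gives inhibition rates across ten concentrations from 10 μM, fitted to IC50.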

Another test has as its target CDK2/CycA2 (Homo sapiens, UniProt P24941). The experiment in a line: ADP-Glo kinase assay on CDK enzymatic activity, CDK2/CycA2. Type of test: biochemical. The settings on record: 10 concentrations from 10 μM, 4-fold, 60 min room temperature. Summed up: as §1
(In general: ADP-Glo turns the ADP formed in a reaction into a luminescent signal.)

The target of a further test is CDK5/p25NCK (Homo sapiens, UniProt Q00535). The experiment in a line: ADP-Glo kinase assay on CDK enzymatic activity, CDK5/p25NCK. Type of test: biochemical. The settings on record: 10 concentrations from 10 μM, 4-fold, 60 min room temperature. Summed up:
as §1

In the next test the target is CDK9/CycT1 (Homo sapiens, UniProt P50750). In words: ADP-Glo kinase assay on CDK enzymatic activity, CDK9/CycT1. Type of test: biochemical. The settings on record: 10 concentrations from 10 μM, 4-fold, 60 min room temperature. The procedure, abridged: as §1
Chain of CDK9/CycT1 (P50750 whole entry): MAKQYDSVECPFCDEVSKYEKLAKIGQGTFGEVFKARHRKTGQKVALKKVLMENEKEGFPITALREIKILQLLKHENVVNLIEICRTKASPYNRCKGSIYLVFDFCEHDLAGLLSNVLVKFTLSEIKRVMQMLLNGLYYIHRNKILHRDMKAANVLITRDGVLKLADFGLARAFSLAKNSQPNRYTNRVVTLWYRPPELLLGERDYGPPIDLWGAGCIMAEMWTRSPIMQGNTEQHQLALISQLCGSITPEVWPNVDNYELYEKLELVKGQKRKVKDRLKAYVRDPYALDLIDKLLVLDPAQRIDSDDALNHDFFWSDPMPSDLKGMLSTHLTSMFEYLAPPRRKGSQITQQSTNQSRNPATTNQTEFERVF
Chain of CDK9/CycT1 (O60563 whole entry partner): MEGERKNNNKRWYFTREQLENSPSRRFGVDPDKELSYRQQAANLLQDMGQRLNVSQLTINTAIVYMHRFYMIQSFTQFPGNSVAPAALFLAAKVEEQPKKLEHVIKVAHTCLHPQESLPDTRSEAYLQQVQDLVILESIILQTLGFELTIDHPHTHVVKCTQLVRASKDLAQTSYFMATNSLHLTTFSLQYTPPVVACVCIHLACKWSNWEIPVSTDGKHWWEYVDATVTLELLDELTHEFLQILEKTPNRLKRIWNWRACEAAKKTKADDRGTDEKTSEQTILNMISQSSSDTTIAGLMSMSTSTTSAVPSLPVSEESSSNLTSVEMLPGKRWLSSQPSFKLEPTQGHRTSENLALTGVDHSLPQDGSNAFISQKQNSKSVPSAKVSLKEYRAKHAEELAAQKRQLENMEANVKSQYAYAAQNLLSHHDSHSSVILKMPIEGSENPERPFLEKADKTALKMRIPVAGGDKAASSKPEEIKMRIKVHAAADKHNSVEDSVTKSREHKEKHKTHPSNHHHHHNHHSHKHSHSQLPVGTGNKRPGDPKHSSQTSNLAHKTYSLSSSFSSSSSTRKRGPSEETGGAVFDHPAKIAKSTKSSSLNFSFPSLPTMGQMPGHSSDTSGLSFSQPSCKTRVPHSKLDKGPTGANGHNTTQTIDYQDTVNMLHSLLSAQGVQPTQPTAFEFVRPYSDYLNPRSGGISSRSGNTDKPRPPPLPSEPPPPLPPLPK
The test system of test [1] is MV-4-11 (human myelomonocytic leukemia cells). In words: CCK-8 cell proliferation assay, MV-4-11. It counts as cell-based. The settings on record: MV4-11, 24 h incubation, 11 concentrations from 5000 nM, 3-fold, read-out: MV-4-11 cell proliferation IC50 (class). As to the method: Test samples: the compounds of the present invention, having structures shown above.
MV-4-11 (human myelomonocytic leukemia cells) and NCI-H929 (human myeloma cells).
The compounds were dissolved in DMSO and diluted 3-fold in the 96-well plate to obtain stock solutions with 11 concentration gradients. Each cell was inoculated into a 96-well plate, and the diluted compound stock solution was added to the 96-well plate to obtain a series of 11 concentration gradients of compound solutions with final concentrations of 5000 nM starting and 3-fold gradient decreasing, wherein the final DMSO content was […]. There was a medium containing 1‰ DMSO in the negative control well. The treated cells were incubated at 37° C. with 5% CO2 and 95% humidity, wherein MV-4-11 were incubated for 24 h and NCI-H929 for 72 h. After incubation was completed, each well was added with 10 μL of CCK-8 reagent, incubated for 1-3 h at room temperature and placed in the microplate reader, and the absorbance was read at 450 nm.
The inhibition rate was calculated according to the following formula: […]
ODcmpd: compound absorbance; ODpositive: average value of the absorbance of positive control without compound; ODvehicle: average value of the absorbance of solvent vehicle control.
IC50 values were fitted using GraphPad 7.0 based on inhibition rates of compounds at different concentrations.
A general note: Tetrazolium assays rely on reduction of a dye to a coloured formazan, in cell work by metabolically active cells.

A further test concerns the target CDK1/CycE1 (Homo sapiens, UniProt P06493). In words: ADP-Glo kinase assay on CDK enzymatic activity, CDK1/CycE1. Type of test: biochemical. The settings on record: ADP-Glo; 10 concentrations from 10 μM, 4-fold; 60 min room temperature; read-out: CDK1/CycE1/nM (IC50). Summed up:
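Compounds in 10-point 4-fold dilutions from 10 μM final, preincubated 10 min with kinase, then substrate/ATP added; 60 min reaction at room temperature. ADP-Glo luminescence read.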

Chain of CDK5/p25NCK (Q00535 whole entry, species assumed): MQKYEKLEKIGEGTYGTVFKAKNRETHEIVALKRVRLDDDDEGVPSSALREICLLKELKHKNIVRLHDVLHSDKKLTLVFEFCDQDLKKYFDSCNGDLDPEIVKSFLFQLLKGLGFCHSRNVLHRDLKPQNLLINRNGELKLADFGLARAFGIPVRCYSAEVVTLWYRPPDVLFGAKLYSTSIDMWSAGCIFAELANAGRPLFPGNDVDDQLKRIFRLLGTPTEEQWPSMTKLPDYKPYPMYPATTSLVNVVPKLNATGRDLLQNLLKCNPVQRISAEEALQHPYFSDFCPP
Chain of CDK5/p25NCK (Q15078 99-307 partner limits assumed, species assumed): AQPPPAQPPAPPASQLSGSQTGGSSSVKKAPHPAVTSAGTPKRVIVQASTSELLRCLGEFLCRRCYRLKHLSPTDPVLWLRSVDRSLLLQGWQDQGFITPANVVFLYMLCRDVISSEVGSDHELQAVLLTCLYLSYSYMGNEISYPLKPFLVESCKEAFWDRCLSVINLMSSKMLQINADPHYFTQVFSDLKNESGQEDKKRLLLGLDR
Chain of CDK3/CycE1 (Q00526 whole entry, species assumed): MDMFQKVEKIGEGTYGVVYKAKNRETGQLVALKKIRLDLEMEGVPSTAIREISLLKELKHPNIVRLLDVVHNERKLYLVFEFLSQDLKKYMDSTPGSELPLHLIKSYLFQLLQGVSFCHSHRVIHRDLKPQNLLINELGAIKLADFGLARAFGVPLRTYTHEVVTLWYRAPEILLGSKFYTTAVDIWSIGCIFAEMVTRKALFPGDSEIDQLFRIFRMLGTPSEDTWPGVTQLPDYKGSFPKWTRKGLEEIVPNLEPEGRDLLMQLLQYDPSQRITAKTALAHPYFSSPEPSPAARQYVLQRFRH
Chain of CDK3/CycE1 (P24864 whole entry partner, species assumed): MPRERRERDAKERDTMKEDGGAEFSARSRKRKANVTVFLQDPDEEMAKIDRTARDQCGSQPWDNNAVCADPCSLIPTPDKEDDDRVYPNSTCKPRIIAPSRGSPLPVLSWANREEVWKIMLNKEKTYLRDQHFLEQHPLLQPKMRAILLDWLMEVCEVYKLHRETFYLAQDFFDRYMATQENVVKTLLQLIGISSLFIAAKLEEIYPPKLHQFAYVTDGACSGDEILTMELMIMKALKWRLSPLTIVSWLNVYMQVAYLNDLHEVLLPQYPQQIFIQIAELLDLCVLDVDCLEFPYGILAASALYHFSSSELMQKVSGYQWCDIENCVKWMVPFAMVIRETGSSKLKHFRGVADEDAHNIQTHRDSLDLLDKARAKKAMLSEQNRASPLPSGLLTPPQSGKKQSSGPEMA
Chain of CDK1/CycE1 (P06493 whole entry, species assumed): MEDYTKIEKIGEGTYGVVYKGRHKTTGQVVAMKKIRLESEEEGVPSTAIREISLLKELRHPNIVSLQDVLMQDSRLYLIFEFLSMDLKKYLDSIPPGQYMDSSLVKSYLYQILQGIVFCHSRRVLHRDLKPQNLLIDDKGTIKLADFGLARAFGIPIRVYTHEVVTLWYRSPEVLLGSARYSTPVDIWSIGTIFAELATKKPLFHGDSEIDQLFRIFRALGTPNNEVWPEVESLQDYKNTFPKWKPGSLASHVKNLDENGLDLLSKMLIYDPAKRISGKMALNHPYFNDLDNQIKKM
Chain of CDK1/CycE1 (P24864 whole entry partner, species assumed): as the sequence (P24864 whole entry partner, species assumed) above

Turning to `CC(=O)N[C@@H]1CCC[C@H](C(=O)Nc2cc3c(NC(C)(C)C)nc(C#N)cc3cn2)C1` [Compound 15, (1S,3R)-3-acetamido-N-(5-(tert-butylamino)-7-cyano-2,6-naphthyridin-3-yl)cyclohexane-1-carboxamide], the IC50 was 273 nM against CDK3/CycE1; 182 nM against CDK2/CycA2; 770 nM against CDK5/p25NCK; 1 nM against CDK9/CycT1; 400 to 1000 nM in test [1].

As for `CC(=O)N[C@@H]1CCC[C@H](C(=O)Nc2cc3c(NC4CC4)nc(C#N)cc3cn2)C1` [Compound 16, (1S,3R)-3-acetamido-N-(7-cyano-5-(cyclopropylamino)-2,6-naphthyridin-3-yl)cyclohexane-1-carboxamide], the IC50 is 951 nM on CDK3/CycE1; 1460 nM at CDK2/CycA2; 2500 nM against CDK5/p25NCK; 20 nM at CDK9/CycT1; above 1000 nM in test [1].

On to `CC(=O)N[C@@H]1CCC[C@H](C(=O)Nc2cc3c(NC4(C)CC4)nc(C#N)cc3cn2)C1` [Compound 17, (1S,3R)-3-acetamido-N-(7-cyano-5-((1-methylcyclopropyl)amino)-2,6-naphthyridin-3-yl)cyclohexane-1-carboxamide], for which the IC50 on CDK3/CycE1 is 750 nM; against CDK2/CycA2, 279 nM; against CDK5/p25NCK, 664 nM; against CDK9/CycT1, 4 nM; in test [1], 400 to 1000 nM.

For `CC(=O)N[C@@H]1CCC[C@H](C(=O)Nc2cc3c(NC(CCO)CCO)nc(C#N)cc3cn2)C1` [Compound 18, (1S,3R)-3-acetamido-N-(7-cyano-5-((1,5-dihydroxypentan-3-yl)amino)-2,6-naphthyridin-3-yl)cyclohexane-1-carboxamide], the IC50 was above 10000 nM against CDK3/CycE1; 3370 nM on CDK2/CycA2; above 10000 nM against CDK5/p25NCK; 15 nM at CDK9/CycT1; above 1000 nM in test [1].

`CC(=O)N[C@@H]1CCC[C@H](C(=O)Nc2cc3c(N4CC[C@@H](O)C4)nc(C#N)cc3cn2)C1` [Compound 19, (1S,3R)-3-acetamido-N-(7-cyano-5-((R)-3-hydroxypyrrolidin-1-yl)-2,6-naphthyridin-3-yl)cyclohexane-1-carboxamide]: the IC50 on CDK3/CycE1 is 1470 nM; at CDK2/CycA2, 2370 nM; at CDK5/p25NCK, 6080 nM; against CDK9/CycT1, 26 nM; in test [1], above 1000 nM.

Take `CC(=O)N[C@@H]1CCC[C@H](C(=O)Nc2cc3c(N4CC[C@@H](N)C4)nc(C#N)cc3cn2)C1` [Compound 20, (1S,3R)-3-acetamido-N-(5-((R)-3-aminopyrrolidin-1-yl)-7-cyano-2,6-naphthyridin-3-yl)cyclohexane-1-carboxamide]: the IC50 was 1750 nM against CDK3/CycE1; 2150 nM on CDK2/CycA2; 4320 nM at CDK5/p25NCK; 11 nM against CDK9/CycT1; above 1000 nM in test [1].

Regarding `CC(=O)N[C@@H]1CCC[C@H](C(=O)Nc2cc3c(N4CC[C@@](C)(O)C4)nc(C#N)cc3cn2)C1` [Compound 22, (1S,3R)-3-acetamido-N-(7-cyano-5-((R)-3-hydroxy-3-methylpyrrolidin-1-yl)-2,6-naphthyridin-3-yl)cyclohexane-1-carboxamide], the IC50 is 1910 nM against CDK3/CycE1; 4510 nM against CDK2/CycA2; above 10000 nM against CDK5/p25NCK; 17 nM against CDK9/CycT1; 400 to 1000 nM in test [1].

Turning to `CC(=O)N[C@@H]1CCC[C@H](C(=O)Nc2cc3c(N4CCC(F)(F)CC4)nc(C#N)cc3cn2)C1` [Compound 23, (1S,3R)-3-acetamido-N-(7-cyano-5-(4,4-difluoropiperidin-1-yl)-2,6-naphthyridin-3-yl)cyclohexane-1-carboxamide], the IC50 against CDK3/CycE1 is 5650 nM; at CDK2/CycA2, 3870 nM; against CDK5/p25NCK it was above 10000 nM; against CDK9/CycT1 it was 38 nM; in test [1], above 1000 nM.

For the compound `CC(=O)N[C@H]1CCC[C@H](C(=O)Nc2cc3c(NC(C)C)nc(C#N)cc3cn2)C1` [Compound 25, (1S,3S)-3-acetamido-N-(7-cyano-5-(isopropylamino)-2,6-naphthyridin-3-yl)cyclohexane-1-carboxamide], the IC50 against CDK3/CycE1 is 602 nM; against CDK2/CycA2 it was 521 nM; on CDK5/p25NCK it was 1210 nM; on CDK9/CycT1, 12 nM; in test [1] it was 400 to 1000 nM.

Regarding `CC(C)Nc1nc(C#N)cc2cnc(NC(=O)[C@H]3CCC[C@H](N)C3)cc12` [Compound 27, (1S,3S)-3-amino-N-(7-cyano-5-(isopropylamino)-2,6-naphthyridin-3-yl)cyclohexane-1-carboxamide], the IC50 is 1630 nM against CDK3/CycE1; 2520 nM at CDK2/CycA2; 3960 nM against CDK5/p25NCK; 51 nM against CDK9/CycT1; 400 to 1000 nM in test [1].

For the compound `CC(C)Nc1nc(C#N)cc2cnc(N[C@H]3CCNC3)cc12` [Compound 31, (S)-1-(isopropylamino)-7-(pyrrolidin-3-ylamino)-2,6-naphthyridine-3-carbonitrile], the IC50 is 1300 nM against CDK3/CycE1; 594 nM against CDK2/CycA2; 1480 nM at CDK5/p25NCK; 4 nM at CDK9/CycT1; 400 to 1000 nM in test [1].

Take `CN[C@@H]1CC[C@H](Nc2cc3c(NC(C)C)nc(C#N)cc3cn2)C1` [Compound 32, 1-(isopropylamino)-7-(((1S,3R)-3-(methylamino)cyclopentyl)amino)-2,6-naphthyridine-3-carbonitrile]: the IC50 was 2050 nM at CDK3/CycE1; 1080 nM against CDK2/CycA2; 1580 nM at CDK5/p25NCK; 7 nM on CDK9/CycT1; 400 to 1000 nM in test [1].

For `CC(C)Nc1nc(C#N)cc2cnc(N[C@H]3CC[C@@H](O)C3)cc12` [Compound 36, 7-(((1S,3R)-3-hydroxycyclopentyl)amino)-1-(isopropylamino)-2,6-naphthyridine-3-carbonitrile], the IC50 was 23 nM against CDK3/CycE1; 4 nM against CDK2/CycA2; 7 nM against CDK5/p25NCK; 1 nM against CDK9/CycT1; 400 to 1000 nM in test [1].

Turning to `CC(C)Nc1nc(C#N)cc2cnc(N[C@@H]3CN[C@H](CO)C3)cc12` [Compound 37, 7-(((3S,5S)-5-(hydroxymethyl)pyrrolidin-3-yl)amino)-1-(isopropylamino)-2,6-naphthyridine-3-carbonitrile], the IC50 is 1130 nM against CDK3/CycE1; 520 nM against CDK2/CycA2; 941 nM on CDK5/p25NCK; 5 nM against CDK9/CycT1; above 1000 nM in test [1].

For `CC(C)Nc1nc(C#N)cc2cnc(N[C@H]3CCC[C@@H](O)C3)cc12` [Compound 41, 7-(((1S,3R)-3-hydroxycyclohexyl)amino)-1-(isopropylamino)-2,6-naphthyridine-3-carbonitrile], the IC50 is 90 nM at CDK3/CycE1, 6 nM against CDK9/CycT1 and above 1000 nM in test [1].

For the compound `CC(C)Nc1nc(C#N)cc2cnc(N[C@@H]3CNCC[C@@H]3F)cc12` [Compound 42, 7-(((3R,4S)-4-fluoropiperidin-3-yl)amino)-1-(isopropylamino)-2,6-naphthyridine-3-carbonitrile], the IC50 is 1300 nM against CDK3/CycE1; 2020 nM against CDK2/CycA2; 3040 nM at CDK5/p25NCK; 18 nM on CDK9/CycT1; above 1000 nM in test [1].

Take `CC(C)Nc1nc(C#N)cc2cnc(N[C@H]3CCC(=O)NC3)nc12` [Compound 106, (S)-8-(isopropylamino)-2-((6-oxopiperidin-3-yl)amino)pyrido[3,4-d]pyrimidine-6-carbonitrile]: the IC50 at CDK3/CycE1 was 29 nM; at CDK1/CycE1, 26 nM; against CDK9/CycT1 it was 4 nM; in test [1], 400 to 1000 nM.

Turning to `CC(C)Oc1nc(C#N)cc2cnc(N[C@H]3C[C@@H](N)C3)cc12` [Compound 195, 7-(((1s,3s)-3-aminocyclobutyl)amino)-1-isopropoxy-2,6-naphthyridine-3-carbonitrile], the IC50 against CDK2/CycA2 was 540 nM; on CDK1/CycE1 it was 14 nM; against CDK9/CycT1, 2 nM; in test [1], 400 to 1000 nM.

Regarding `CC(C)Nc1nc(C#N)cc2cnc(N[C@H]3C[C@@H](CO)C3)nc12` [Compound C29, 2-(((1s,3s)-3-(hydroxymethyl)cyclobutyl)amino)-8-(isopropylamino)pyrido[3,4-d]pyrimidine-6-carbonitrile], the IC50 against CDK2/CycA2 is 35 nM; at CDK1/CycE1, 51 nM; against CDK9/CycT1, 3 nM; in test [1] it was 400 to 1000 nM.
